The source of these data is US20180193350A1, “TREATMENT OF NUT MIDLINE CARCINOMA” (Tensha Therapeutics, Inc., priority 2015, published 2018).

Structures are written as SMILES.

In experiment [1] the test system is bromodomains of the BET family. The note with it: Bres et al. 2008; cited from earlier work.
The test system of a further experiment is CD11b on CD14+ monocytes. Nature of the experiment: CD11b expression levels on CD14+ monocytes in patients treated with TEN-010 (flow cytometry, MESF). The experiment is classed as in vivo, human. The text has this: Patients aged 18 years or older with histologically confirmed advanced solid tumors with progressive disease requiring therapy were enrolled in the study. In particular, patients with histologically confirmed advanced solid malignancy with progressive disease, NMC, or advanced aggressive diffuse large B cell lymphoma (DLBCL) were enrolled in the study. Patients with hemotologic malignancies were not enrolled in the study. TEN-010 was formulated as a sterile, preserved isotonic solution for subcutaneous (SC) administration. A dose of 0.45 mg/kg was administered on Days 1 through 21 (“ON segment”) of each cycle without interruption, followed by a 7-day dose-free interval (“OFF segment”) in a 28-day treatment cycle. Injections were rotated amongst several sites including bilateral upper arms and thighs and mid and lower abdomen and buttocks. Whole blood specimens were collected at specified time points (e.g., see FIG. 1) in sodium heparin vacutainers. Briefly, two 12×75 mm test tubes per donor were labeled with specimen ID and appropriate cocktail name (see Table 2 below). 100 μl of sodium heparin anticoagulated whole blood was pipetted into the test tubes. The appropriate titrated volume of antibody cocktails was pipetted into the correspondingly labeled tubes. The appropriate titrated amount of CD14 PerCP, was added to all tubes to identify CD14 positive monocytes. The tubes were vortexed and were allowed to incubate for 30 minutes at room temperature in the dark. The red blood cells were lysed by adding 4 ml of an ammonium chloride-based whole blood lysing reagent to each tube. The tubes were capped and inverted to mix well prior to incubating in the dark at room temperature for 5 minutes. After the incubation, the tubes were centrifuged at 400 RCF for 5 minutes, the supernatant decanted and the tubes rack-raked to disperse cell pellet. The cells were washed with 2 ml of PBS with 1% BSA and centrifuged. To detect biotin conjugated CD45 RO antibody, the appropriate titrated amount of SA-BV605 (streptavidin (SA) conjugated to brilliant violet (BV) 605) was added to each tube and tubes were vortexed. After a 20 minute incubation in the dark at room temperature, the cells were washed with 2 ml of PBS with 1% BSA and centrifuged. The supernatant was decanted and the cells were rack-raked to disperse the cell pellet. Each tube received 500 μl of 1% paraformaldehyde and stored at 2-8 C until acquisition on the day of preparation. The tubes were acquired on a Becton Dickinson (BD) FACSCanto™ II flow cytometer with appropriate instrument settings, acquiring approximately 250,000 total events per tube. All analyses for flow cytometry were performed on WinList 7.0 (Verity Software House, Topsham, Me.) with a direct data exchange link to Microsoft® Excel 2003 or equivalent. For FIG. 1, baseline value (pre-dose at cycle 1, day 1, i.e., C1D1) was set at an arbitrary MESF value (e.g., 100) for each patient; all subsequent values obtained from the study were normalized to the baseline value. For FIG. 2, unnormalized MESF values are shown.
Background: Flow cytometry measures light scatter and fluorescence of single cells or particles in a stream.

Experiment [2] deals with lactate dehydrogenase (LDH). Nature of the experiment: LDH levels in patients treated with TEN-010. It counts as in vivo, human. The note with it: non-NMC patient 002-021 (FIG. 2B), despite significant rise in CD11b levels. The text has this:
Patients aged 18 years or older with histologically confirmed advanced solid tumors with progressive disease requiring therapy were enrolled in the study. In particular, patients with histologically confirmed advanced solid malignancy with progressive disease, NMC, or advanced aggressive diffuse large B cell lymphoma (DLBCL) were enrolled in the study. Patients with hemotologic malignancies were not enrolled in the study.
TEN-010 was formulated as a sterile, preserved isotonic solution for subcutaneous (SC) administration. A dose of 0.45 mg/kg was administered on Days 1 through 21 (“ON segment”) of each cycle without interruption, followed by a 7-day dose-free interval (“OFF segment”) in a 28-day treatment cycle. Injections were rotated amongst several sites including bilateral upper arms and thighs and mid and lower abdomen and buttocks.
LDH levels were measured using standard protocols, using a chemistry analyzer, e.g., Beckman Coulter. See, e.g., Lactate OSR6193 procedure published March 2012 (webcache.googleuserconent.com/search?q=cache:iyYi7vCetH4J:https://www.beckmancoulter.com/wsrportal/techdocs%3Fdocname%3D/cis/BAOSR6x93%2525%2525/EN_LACTATE_BAOSR6x93_US.doc+&cd=2&hl=en&ct=clnk&gl=us), incorporated by reference in its entirety.

Consider `Cc1sc2c(c1C)C(c1ccc(Cl)cc1)=N[C@@H](CC(=O)OC(C)(C)C)c1nnc(C)n1-2` [JQ1], for which the “binding to bromodomains of the BET family” value in experiment [1] was “specifically binds”.

`Cc1sc2c(c1C)C(c1ccc(Cl)cc1)=N[C@@H](CC(=O)NCCCN1CCN(C)CC1)c1nnc(C)n1-2` [TEN-010]: in the experiment on CD11b on CD14+ monocytes (NMC patient 004-001), the “CD11b levels following the off-drug segment (C2D1)” value is on record as “dramatically increased”. The “effectiveness by C2D1” value with CD11b on CD14+ monocytes (NMC patient 004-001, suggested by CD11b increase, patient died shortly thereafter) is listed as “not effective”. Further, the “decrease of CD11b levels relative to baseline value” in the experiment with CD11b on CD14+ monocytes (all 6 patients, 0.45 mg/kg SC Days 1-21 of 28-day cycle, by C1D15 vs pre-dose C1D1) is “at least 50%”. The “CD11b levels at start of second cycle (C2D1)” value with CD11b on CD14+ monocytes (all patients except NMC patient 004-001, after 21 days on-drug and 7 days off-drug) is “held steady”. The CD11b levels entry in the experiment on CD11b on CD14+ monocytes (non-NMC patient 002-021 (FIG. 2B)) is reported as “significant rise”. For the same molecule, the LDH levels result in experiment [2] is given as “remained constant”.
